According to ChEMBL document CHEMBL5653631, “A Potent and Selective ULK1 Inhibitor Suppresses Autophagy and Sensitizes Cancer Cells to Nutrient Stress” (iScience, 2018):

Columns and labels:
[1] = target: T1, Muscle, skeletal receptor tyrosine-protein kinase (Homo sapiens) (UniProt O15146); experiment: Inhibition of human recombinant MUSK at 40 nM related to control ULK1
T1 sequence (whole entry): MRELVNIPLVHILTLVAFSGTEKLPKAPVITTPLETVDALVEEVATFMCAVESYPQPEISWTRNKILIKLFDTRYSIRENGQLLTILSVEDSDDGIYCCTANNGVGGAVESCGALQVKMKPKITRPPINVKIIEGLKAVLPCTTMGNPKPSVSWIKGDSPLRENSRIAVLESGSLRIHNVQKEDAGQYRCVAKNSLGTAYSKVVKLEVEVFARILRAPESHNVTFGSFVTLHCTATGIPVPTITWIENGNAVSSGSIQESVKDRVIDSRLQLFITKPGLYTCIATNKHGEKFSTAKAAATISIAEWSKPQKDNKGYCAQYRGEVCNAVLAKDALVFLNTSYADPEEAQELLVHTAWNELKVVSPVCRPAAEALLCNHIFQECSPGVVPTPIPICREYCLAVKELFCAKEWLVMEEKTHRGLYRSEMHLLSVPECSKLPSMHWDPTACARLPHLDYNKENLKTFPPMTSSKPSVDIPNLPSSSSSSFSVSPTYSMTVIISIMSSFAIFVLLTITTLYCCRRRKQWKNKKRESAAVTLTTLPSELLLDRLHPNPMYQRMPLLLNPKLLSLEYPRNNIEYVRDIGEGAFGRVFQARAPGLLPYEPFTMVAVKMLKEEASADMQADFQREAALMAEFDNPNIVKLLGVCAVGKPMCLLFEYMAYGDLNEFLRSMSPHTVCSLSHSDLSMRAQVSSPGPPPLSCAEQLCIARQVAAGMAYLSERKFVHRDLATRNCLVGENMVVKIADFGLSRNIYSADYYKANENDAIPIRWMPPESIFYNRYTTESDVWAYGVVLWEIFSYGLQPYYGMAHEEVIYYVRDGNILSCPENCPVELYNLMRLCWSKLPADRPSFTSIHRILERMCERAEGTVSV

[2] = target: T2, Tyrosine-protein kinase ITK/TSK (Homo sapiens) (UniProt Q08881); experiment: Inhibition of human recombinant ITK at 40 nM in presence of ATP by radiometric assay relative to control
T2 sequence (whole entry): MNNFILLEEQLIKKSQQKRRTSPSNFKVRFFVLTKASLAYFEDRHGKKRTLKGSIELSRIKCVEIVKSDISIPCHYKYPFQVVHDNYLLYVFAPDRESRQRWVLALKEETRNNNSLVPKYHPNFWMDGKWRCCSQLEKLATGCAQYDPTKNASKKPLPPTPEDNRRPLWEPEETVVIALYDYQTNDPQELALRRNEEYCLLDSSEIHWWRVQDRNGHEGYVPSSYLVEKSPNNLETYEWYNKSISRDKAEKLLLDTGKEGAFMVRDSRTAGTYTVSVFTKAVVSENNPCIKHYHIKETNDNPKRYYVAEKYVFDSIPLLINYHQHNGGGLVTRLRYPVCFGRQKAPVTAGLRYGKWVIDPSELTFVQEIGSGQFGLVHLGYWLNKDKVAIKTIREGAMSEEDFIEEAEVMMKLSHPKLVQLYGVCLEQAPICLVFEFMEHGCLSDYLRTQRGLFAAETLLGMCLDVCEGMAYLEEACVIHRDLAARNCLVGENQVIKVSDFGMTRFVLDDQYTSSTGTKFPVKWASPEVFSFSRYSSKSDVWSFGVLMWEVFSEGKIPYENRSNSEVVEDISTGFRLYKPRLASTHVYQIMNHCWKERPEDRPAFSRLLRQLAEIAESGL

[3] = target: T3, Tyrosine-protein kinase Mer (Homo sapiens) (UniProt Q12866); experiment: Inhibition of human recombinant MER at 15 nM related to control ULK1
T3 sequence (whole entry): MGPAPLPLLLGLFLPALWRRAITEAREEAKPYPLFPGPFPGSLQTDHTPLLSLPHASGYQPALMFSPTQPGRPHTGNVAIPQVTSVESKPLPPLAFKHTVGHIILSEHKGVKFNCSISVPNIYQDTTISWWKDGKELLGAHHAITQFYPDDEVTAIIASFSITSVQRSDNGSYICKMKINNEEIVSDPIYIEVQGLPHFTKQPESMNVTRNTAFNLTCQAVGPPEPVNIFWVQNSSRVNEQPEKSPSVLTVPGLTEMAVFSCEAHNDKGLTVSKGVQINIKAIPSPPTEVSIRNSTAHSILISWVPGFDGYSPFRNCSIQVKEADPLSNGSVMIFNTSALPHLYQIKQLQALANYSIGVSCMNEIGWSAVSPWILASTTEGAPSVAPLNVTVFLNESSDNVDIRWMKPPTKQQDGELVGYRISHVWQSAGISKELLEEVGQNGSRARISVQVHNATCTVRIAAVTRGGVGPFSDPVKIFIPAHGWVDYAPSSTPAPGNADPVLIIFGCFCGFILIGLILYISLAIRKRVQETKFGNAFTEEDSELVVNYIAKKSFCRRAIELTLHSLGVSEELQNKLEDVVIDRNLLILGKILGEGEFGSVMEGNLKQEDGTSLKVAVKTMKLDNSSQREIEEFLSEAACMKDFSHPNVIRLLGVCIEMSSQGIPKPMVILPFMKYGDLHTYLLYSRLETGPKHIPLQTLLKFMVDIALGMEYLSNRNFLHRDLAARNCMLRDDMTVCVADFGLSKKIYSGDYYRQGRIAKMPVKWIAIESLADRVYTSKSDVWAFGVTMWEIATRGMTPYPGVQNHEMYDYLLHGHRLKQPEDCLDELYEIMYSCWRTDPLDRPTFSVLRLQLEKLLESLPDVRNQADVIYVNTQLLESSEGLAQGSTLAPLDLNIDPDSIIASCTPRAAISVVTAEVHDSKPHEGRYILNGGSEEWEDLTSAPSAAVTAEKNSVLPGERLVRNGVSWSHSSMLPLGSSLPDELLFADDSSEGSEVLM

[4] = target: Tau-tubulin kinase 2 (Homo sapiens) (UniProt Q6IQ55); experiment: Inhibition of human recombinant TTBK2 at 15 nM related to control ULK1
Chain of Tau-tubulin kinase 2 (Homo sapiens) (Q6IQ55 whole entry): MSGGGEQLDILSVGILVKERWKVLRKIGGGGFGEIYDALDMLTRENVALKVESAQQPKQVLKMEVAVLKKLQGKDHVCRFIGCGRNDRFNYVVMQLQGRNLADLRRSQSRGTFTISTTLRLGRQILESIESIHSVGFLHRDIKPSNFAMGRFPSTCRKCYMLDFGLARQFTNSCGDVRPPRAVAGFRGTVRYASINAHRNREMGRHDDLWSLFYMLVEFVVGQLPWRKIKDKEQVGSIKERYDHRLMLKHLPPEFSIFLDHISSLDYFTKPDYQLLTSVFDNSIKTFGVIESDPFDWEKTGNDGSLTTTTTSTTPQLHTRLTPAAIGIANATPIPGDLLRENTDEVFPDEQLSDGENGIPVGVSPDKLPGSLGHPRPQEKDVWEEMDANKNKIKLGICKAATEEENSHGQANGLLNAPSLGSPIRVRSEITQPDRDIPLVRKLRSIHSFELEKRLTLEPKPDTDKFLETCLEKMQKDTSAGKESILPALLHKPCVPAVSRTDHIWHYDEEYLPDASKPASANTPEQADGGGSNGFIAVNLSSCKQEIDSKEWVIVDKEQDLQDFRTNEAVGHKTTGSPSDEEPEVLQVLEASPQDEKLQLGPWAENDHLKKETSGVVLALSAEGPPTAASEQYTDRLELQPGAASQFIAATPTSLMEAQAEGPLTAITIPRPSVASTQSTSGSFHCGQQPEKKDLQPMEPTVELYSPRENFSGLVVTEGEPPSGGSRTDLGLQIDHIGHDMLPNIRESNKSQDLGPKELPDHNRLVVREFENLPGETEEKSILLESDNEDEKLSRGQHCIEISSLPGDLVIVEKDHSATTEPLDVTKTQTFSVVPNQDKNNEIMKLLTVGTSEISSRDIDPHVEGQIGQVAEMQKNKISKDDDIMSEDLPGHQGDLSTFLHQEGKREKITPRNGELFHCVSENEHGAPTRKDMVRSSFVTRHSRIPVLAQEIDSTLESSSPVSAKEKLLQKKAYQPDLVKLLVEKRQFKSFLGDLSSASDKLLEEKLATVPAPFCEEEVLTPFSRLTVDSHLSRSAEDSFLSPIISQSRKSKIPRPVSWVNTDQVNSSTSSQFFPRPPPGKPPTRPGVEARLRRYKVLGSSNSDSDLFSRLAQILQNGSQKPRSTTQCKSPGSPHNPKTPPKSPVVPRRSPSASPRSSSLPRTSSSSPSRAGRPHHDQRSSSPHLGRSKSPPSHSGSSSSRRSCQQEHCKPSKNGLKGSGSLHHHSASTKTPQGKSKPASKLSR

[5] = target: Dual specificity mitogen-activated protein kinase kinase 1 (Homo sapiens) (UniProt Q02750); experiment: Inhibition of human recombinant MAP2K1 at 500 nM related to control ULK1
Chain of Dual specificity mitogen-activated protein kinase kinase 1 (Homo sapiens) (Q02750 whole entry): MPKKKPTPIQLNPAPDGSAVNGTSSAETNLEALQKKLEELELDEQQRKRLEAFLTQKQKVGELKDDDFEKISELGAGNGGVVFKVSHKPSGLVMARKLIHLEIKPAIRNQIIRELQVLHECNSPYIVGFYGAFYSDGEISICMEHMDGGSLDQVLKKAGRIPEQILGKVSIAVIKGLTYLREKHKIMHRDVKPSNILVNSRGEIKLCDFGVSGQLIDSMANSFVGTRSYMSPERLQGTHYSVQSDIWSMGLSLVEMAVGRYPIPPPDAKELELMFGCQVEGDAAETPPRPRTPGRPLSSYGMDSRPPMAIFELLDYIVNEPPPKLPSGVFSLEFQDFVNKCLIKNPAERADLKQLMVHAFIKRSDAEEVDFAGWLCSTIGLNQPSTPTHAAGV

[6] = target: Tyrosine-protein kinase Fes/Fps (Homo sapiens) (UniProt P07332); experiment: Inhibition of human recombinant FES at 500 nM related to control ULK1
Chain of Tyrosine-protein kinase Fes/Fps (Homo sapiens) (P07332 whole entry, canonical isoform): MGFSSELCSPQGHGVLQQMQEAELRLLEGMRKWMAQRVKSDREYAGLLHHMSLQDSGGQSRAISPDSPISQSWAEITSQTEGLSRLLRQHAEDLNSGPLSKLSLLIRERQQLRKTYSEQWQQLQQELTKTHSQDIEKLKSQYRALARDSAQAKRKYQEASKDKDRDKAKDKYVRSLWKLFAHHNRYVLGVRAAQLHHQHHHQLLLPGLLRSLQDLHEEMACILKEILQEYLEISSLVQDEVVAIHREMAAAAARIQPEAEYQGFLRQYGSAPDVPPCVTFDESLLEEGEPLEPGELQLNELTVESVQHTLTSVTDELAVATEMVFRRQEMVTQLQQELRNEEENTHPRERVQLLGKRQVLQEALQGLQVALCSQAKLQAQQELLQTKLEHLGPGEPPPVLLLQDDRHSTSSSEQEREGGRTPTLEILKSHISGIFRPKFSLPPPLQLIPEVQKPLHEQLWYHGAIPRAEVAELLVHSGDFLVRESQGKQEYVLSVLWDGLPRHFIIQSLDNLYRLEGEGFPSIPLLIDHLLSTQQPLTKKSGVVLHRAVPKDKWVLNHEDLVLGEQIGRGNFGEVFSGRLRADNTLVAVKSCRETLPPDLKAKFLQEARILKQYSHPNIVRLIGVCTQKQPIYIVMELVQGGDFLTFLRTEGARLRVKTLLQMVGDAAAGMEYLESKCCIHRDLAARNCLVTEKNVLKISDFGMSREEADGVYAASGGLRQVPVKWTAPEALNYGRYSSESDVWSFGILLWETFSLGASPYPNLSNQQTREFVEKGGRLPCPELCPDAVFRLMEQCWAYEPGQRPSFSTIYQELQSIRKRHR

[7] = target: Phosphorylase b kinase gamma catalytic chain, skeletal muscle/heart isoform (Homo sapiens) (UniProt Q16816); experiment: Inhibition of human recombinant PHKg1 at 500 nM related to control ULK1
Chain of Phosphorylase b kinase gamma catalytic chain, skeletal muscle/heart isoform (Homo sapiens) (Q16816 whole entry, looked up, canonical isoform): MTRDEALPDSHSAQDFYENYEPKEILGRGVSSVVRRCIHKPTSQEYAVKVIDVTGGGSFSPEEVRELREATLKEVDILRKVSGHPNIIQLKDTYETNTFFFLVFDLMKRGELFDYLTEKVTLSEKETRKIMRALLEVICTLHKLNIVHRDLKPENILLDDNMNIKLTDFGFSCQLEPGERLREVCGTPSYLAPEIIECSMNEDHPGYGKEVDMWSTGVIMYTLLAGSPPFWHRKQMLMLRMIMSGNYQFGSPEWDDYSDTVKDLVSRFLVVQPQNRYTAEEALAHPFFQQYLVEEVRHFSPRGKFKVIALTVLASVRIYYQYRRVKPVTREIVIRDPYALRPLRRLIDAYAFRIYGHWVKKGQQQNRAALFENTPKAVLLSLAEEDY

O=C(N[C@@H](C1CC1)C(F)(F)F)c1cc(-c2cnn3cc(-c4ccc(F)cc4)cnc23)cs1
fold change (FC) [1]: 0.18 | inhibition [2]: 0%

CC(C)[C@H](NC(=O)c1cc(-c2cnn3cc(-c4ccc(OCCN5CCCCC5)cc4)cnc23)cs1)C(F)(F)F
fold change (FC) [3]: 0.39 | fold change (FC) [4]: 0

CNC(=O)c1ccccc1Oc1nc(Nc2cc(OC)c(OC)c(OC)c2)ncc1Br
fold change (FC) [5]: 0 | fold change (FC) [6]: 0.38 | fold change (FC) [7]: 0.31
